Data published in patent publication US5998376A, “Substance P treatment for immunostimulation” (priority 1998, dated 1999).

Tests used:
[1] = tested on: immune system organs (spleen, lymph nodes and thymus); experiment: Organ Weight and Total Cell Recovery, JP-8 exposed mice; format: in vivo, C57B16 mice; parameters: Spleen Weight / Thymus Weight: unit not given here
Experimental: (§1) At 24 hours after the last exposure, the animals were sacrificed and the effects of exposure on the immune system examined. Immune organs (spleen, thymus, blood, lymph nodes and bone marrow) were recovered and analyzed for effects on organ weight, total cell numbers, immune cell populations (by differentials), and lymphocyte subpopulations (by flow cytometry). Assays were also performed to examine the effects of exposure on immune function. […] Similar effects on immune cell subpopulations were also observed in lymph nodes. In the thymus it appeared that the immature CD4^+ CD8^+ cells were differentially lost due to exposure. […] However, these effects are prevented or ameliorated by treatment of the animals with Substance P.
Organ Weight and Total Cell Recovery: For each of the immune system organs (spleen, lymph nodes and thymus) the wet weight is determined after removal using a microbalance. After processing of the organs into single cell suspensions the cell numbers and viabilities are determined using trypan blue staining. Histochemical differentials are performed at this time. Cell numbers and viabilities are again determined after centrifugation of the cell suspensions through density gradients to obtain mononuclear cells.

immune system = experiment: Immune parameters and immune function (blastogenesis, mixed lymphocyte response) after JP-8 exposure; format: in vivo, C57B16 mice
Experimental: as §1
Blastogenesis and Mixed lymphocyte response (MLR) assays: Blastogenesis and MLR assays are set up in 96 well microtitre plated in replicates of 6. Responder cells are plated at 1×10^5 cells/well and are stimulated as indicated (with either media, alloantigen, growth factors or mitogens). After 72 hours the plates are pulsed with 1 uCi/well of ^3 H-thymidine for 18 hours. The wells are then harvested using a Ph.D. cell harvester, the filters dried and scintillation counting performed. The data is presented as the stimulated dpm and is represented as the stimulation index (SI) (Harris et al., Proc. Natl. Acad Sci. USA 89:10006 (1992)).

[2] = tested on: spleen, thymus and bone marrow cells; experiment: Substance P aerosol therapy in JP-8 jet fuel exposed mice, cell numbers (FIGS. 1-3); format: in vivo, C57BL6 mice
Text: Since mice are nose-breathers, they were exposed to the aerosol/vapor mixture via nose-only presentation while they were held in individual loading tubes. The tubes were nose-fitted to receiving adaptors that originated from the common anodized aluminum exposure chamber (volume 0.3 m^3, IN-TOX, Albuquerque, N.Mex.). Noses were positioned in the exposure ports to minimize systemic absorption that might occur during total body exposure or through the process of self-grooming after exposure. The mice were rotated on a daily basis through the 24-adaptor positions of the exposure chamber. This was done to minimize proximity to the jet fuel source as a variable in exposure concentration or composition. Passive entrainment of the jet fuel aerosol/vapor mix and room air through the IN-TOX chamber was conducted by vacuum (15 liters/min). The vacuum was applied to the exposure chamber on the side opposite the fuel source. Animal exposure ports not in use were sealed during the exposure period. Longitudinal controls were sham-exposed in a manner identical to those receiving jet fuel, except that only room air was introduced into the exposure chamber. The exposure chamber was thoroughly cleaned prior to the longitudinal control group's exposure.
The substance P aerosol therapy was performed at the completion of the JP-8 jet fuel exposure. The nebulizer was modified with clean hoses and a new sonication crucible. […] The substance P aerosol therapy was conducted for the same seven day period over a total time period of nine days as the JP-8 jet fuel exposure regimen.

splenic B cells = experiment: Mitogenesis of spleen B cells (lipopolysaccharide, 3H-thymidine) from LP-BM5-infected mice given SP aerosol; format: in vivo, C57BL6 mice; details: LP-BM5 virus + SP aerosol 1 μM
Experimental: C57BL6 mice, average weight of 25-30 grams, were infected with the LP-BM5 murine leukemia retrovirus to simulate the human AIDS virus. […] The mice were divided into two groups; LP-BM5 virus only and LP-BM5 virus +substance P aerosol therapy at 1 μM concentration. The mice were killed at 4 and 8 weeks post-inoculation.
The proliferation of splenic B and T cells induced by mitogens was determined by incorporation of radioactive thymidine. Splenocytes in 0.1 ml of cell culture medium (1×10^7 cells/ml) were cultured in 96-well flat-bottom cultured plates with ConA and lipopolysaccharide, 5 micrograms/ml). The cells were incubated at 37° C., 5% CO2 incubator for 72 hours for ConA-induced T cell proliferation, and then pulsed with ^3 H-thymidine (1 microCurie/well). After 4 hours for radioactive thymidine uptake, the cells were harvested by a cell sample harvester. Radioactivity was determined by a liquid scintillation counter (Tri-Carb, 2200CA). The T and B cell mitogenesis values were recorded as counts per min in 1×10^7 cells/ml.

[3] = tested on: melanoma B16 cancer cells; experiment: B16 melanoma massive challenge, survival; format: in vivo, mice; details: tumor-challenged mammals, aerosol therapy
Text: The mice were infected with 1×10^5 […] melanoma B16 cancer cells by tail vein injection.

[4] = JP-8 dose 0 + SP or antagonist aerosol
[5] = JP-8 dose 1000 + SP or antagonist aerosol
[6] = JP-8 dose 1000 + nSP (1 nanomolar substance P)
[7] = dose printed 100 + nSP (1 nanomolar substance P)
[8] = JP-8 exposed mice, one micromolar aerosol 15 minutes
[9] = 4 weeks after infection, mean (SEM)

Substance P [SP] was tested, and the “BM Cell Number” value [1, 4] was 9, the “Spleen Cell Number” value [1, 4] was 30 and the “Spleen Weight” value [1, 4] was 0.10. The “Thymus Cell Number” value [1, 4] was 18, the “Thymus Weight” value [1, 4] was 0.04 and the “BM Cell Number” value ([1]; JP-8 dose 250 + SP aerosol) was 23. The “Spleen Cell Number” value ([1]; JP-8 dose 250 + SP aerosol) was 40, the “Spleen Weight” value ([1]; JP-8 dose 250 + SP aerosol) was 0.16 and the “Thymus Cell Number” value ([1]; JP-8 dose 250 + SP aerosol) was 20. For the same substance, the “Thymus Weight” value ([1]; JP-8 dose 250 + SP aerosol) was 0.06, the “BM Cell Number” value [1, 5] was 21 and the “LN Cell Number” value [1, 5] was 5.0. The “Spleen Cell Number” value [1, 5] was 72, the “Spleen Weight” value [1, 5] was 0.14 and the “Thymus Cell Number” value [1, 5] was 78. For the same substance, the “Thymus Weight” value [1, 5] was 0.11, the “BM Cell Number” value [1, 6] was 31 and the “Thymus Cell Number” value [1, 6] was 78. The “Thymus Weight” value [1, 6] was 0.04, the “BM Cell Number” value ([1]; JP-8 dose 2500 + SP aerosol) was 19 and the “LN Cell Number” value ([1]; JP-8 dose 2500 + SP aerosol) was 5.0. For the same substance, the “Spleen Cell Number” value ([1]; JP-8 dose 2500 + SP aerosol) was 87, the “Spleen Weight” value ([1]; JP-8 dose 2500 + SP aerosol) was 0.10 and the “Thymus Cell Number” value ([1]; JP-8 dose 2500 + SP aerosol) was 96. For the same substance, the “Thymus Weight” value ([1]; JP-8 dose 2500 + SP aerosol) was 0.08, the “Spleen Cell Number” value [1, 7] was 58 and the “Spleen Weight” value [1, 7] was 0.11. For the same substance, the “deleterious effects of chronic JP-8 jet fuel exposure to the immune system” value (immune system; Substance P aerosol therapy) was “reversed and/or prevented”, the “majority of the effects of JP-8 jet fuel exposure on the immune system” value (immune system; Substance P at both 1 uM and 1 nM doses) was “could be significantly reversed” and the “effects of JP-8 exposure on all measured immune parameters” value (immune system; mice exposed to 500, 1000 or 2500 mg aerosolized JP-8, 7 days 1 hour/day, treated with Substance P) was “invariably reversed the effects on all measured parameters of JP-8 exposure to almost normal levels”. The “effect on spleen cell number (FIG. 1)” value ([2]; JP-8 500 or 2500 mg/m^3, 1 hour/day 7 days, one micromolar aerosol 15 minutes after each exposure) was “totally reverse the effect of the jet fuel on the spleen cell number”, the “effect on bone marrow cells (FIG. 3)” value [2, 8] was “augments the stimulation substantially” and the “effect on thymus cell number (FIG. 2)” value [2, 8] was “substantially reverses the effect on cell number”. The “Spleen B Cell Mitogenesis, 24 Hours in Culture” value (splenic B cells; [9]) was 2063 (448) counts per min, the “Spleen B Cell Mitogenesis, 48 Hours in Culture” value (splenic B cells; [9]) was 1369 (231) counts per min and the “Spleen B Cell Mitogenesis, 72 hours in culture” value (splenic B cells; [9]) was 1642 (158) counts per min. The “Spleen B Cell Mitogenesis, 72 hours in culture” value (splenic B cells; 8 weeks post-infection, not significant) was 3227 (854) counts per min and the survival time [3] was “enhance survival time”.
